Test results published in BigSolDB 2.1.

CC(=O)N[C@@H](C)C(=O)O
solubility (mole fraction)
Details | 283.15 K | 288.15 K | 293.15 K | 298.15 K | 303.15 K | 308.15 K | 313.15 K | 318.15 K | 323.15 K
in 2-butanone | 0.0111 | 0.0132 | 0.0161 | 0.0186 | 0.0215 | 0.026 | 0.03 | 0.0358 | 0.0437
in acetone | 0.0224 | 0.028 | 0.0329 | 0.0372 | 0.0446 | 0.0524 | 0.0638 | 0.0819 | 0.103
in acetonitrile | 0.00594 | 0.00727 | 0.00871 | 0.0114 | 0.0136 | 0.0177 | 0.0226 | 0.0312 | 0.0385
in dimethyl carbonate | 0.00223 | 0.00261 | 0.00319 | 0.00376 | 0.00449 | 0.00543 | 0.00668 | 0.00841 | 0.0103
in ethanol | 0.111 | 0.127 | 0.138 | 0.156 | 0.174 | 0.198 | 0.217 | 0.235 | 0.267
in ethyl acetate | 0.00433 | 0.00521 | 0.0062 | 0.00718 | 0.00806 | 0.00947 | 0.0112 | 0.0131 | 0.0156
in isobutanol | 0.0571 | 0.063 | 0.0718 | 0.0798 | 0.0916 | 0.107 | 0.12 | 0.132 | 0.145
in isopentanol | 0.0527 | 0.0563 | 0.0636 | 0.0713 | 0.0823 | 0.0949 | 0.108 | 0.125 | 0.139
in isopropanol | 0.0781 | 0.0901 | 0.1 | 0.113 | 0.13 | 0.148 | 0.162 | 0.175 | 0.195
in methyl acetate | 0.00578 | 0.00705 | 0.00861 | 0.00997 | 0.0114 | 0.0135 | 0.0162 | 0.0196 | 0.0242
in n-butanol | 0.0633 | 0.0707 | 0.0784 | 0.0869 | 0.0982 | 0.114 | 0.127 | 0.143 | 0.157
in n-butyl acetate | 0.00354 | 0.00382 | 0.00417 | 0.00455 | 0.00504 | 0.00573 | 0.00654 | 0.00771 | 0.00892
in n-pentanol | 0.0516 | 0.0546 | 0.0621 | 0.0695 | 0.0805 | 0.0915 | 0.106 | 0.12 | 0.137
in n-propanol | 0.0858 | 0.0937 | 0.104 | 0.118 | 0.133 | 0.153 | 0.168 | 0.186 | 0.213
in n-propyl acetate | 0.003 | 0.00352 | 0.00421 | 0.00495 | 0.00558 | 0.00642 | 0.00755 | 0.00913 | 0.0109
in sec-butanol | 0.068 | 0.0759 | 0.0892 | 0.101 | 0.113 | 0.129 | 0.144 | 0.161 | 0.175
